Measured values published in patent publication US20250151724A1, “Liquid Soil Treatments Containing Choline” (Harrell's, LLC, priority 2023, published 2025).
Read-outs that look alike come from different tables or passages of the source.

Tested on: creeping bentgrass putting green
Method: The study was carried out on a creeping bentgrass putting green. There were two separate trials (Trial 1 and Trial 2). Trial 1 and Trial 2 were conducted side by side. Each trial consisted of 2 treatments with 4 replications. Plot size was 5×6 ft. Regular mowing and irrigation were performed. A randomized block design was used.
The treatments were as follows: • I. Choline Trial 1-Biweekly • 1. Fertilized Control • 2. Choline 0.5 oz./1,000 ft^2 every two weeks • II. Choline Trial 2-Monthly • 1. Fertilized Control • 2. Choline 0.5 oz./1,000 ft^2 every month
Between 0.125″ and 0.25″ of irrigation was applied 3-4 hours post application. All treatments received equal fertility (applied bi-weekly) with 28-8-18 with UMAXX® fertilizer (Harrell's, Lakeland, Florida) applied on the day following application of treatments.
The trials lasted for 15 weeks and a total of 7 treatment applications in the bi-weekly trial and 4 treatment applications in the monthly trial. The following measurements data were taken at the specified intervals throughout the trials: • a. Volumetric water content (VWC) was measured with a TDR350 moisture sensor (Turf-Tec Intentional, Tallahassee, FL) every 2 weeks. In addition, beginning on days 13, 34, and 69, irrigation was withheld for about 9 days to allow gradual decline of the soil water content, inducing significant decline in leaf color and turf quality. Volumetric water content was measured at day 0 (the day of initiation of irrigation withholding), day 3, day 6, and day 9. Irrigation was resumed after day 9 of the first and second dry down cycle. […] Three readings of VWC were collected from each plot and the average was used for statistical analysis. • b. Leaf color was rated based on a visual scale of 1 through 9, with 1 indicating brown color and 9 indicating dark green color. • c. Turf quality was rated based on a visual scale of 1 through 9, with 9 indicating the best quality and 6 indicating the minimum commercially acceptable quality.

[1] = 0.5 oz/1000 ft^2 biweekly, day 0
[2] = 0.5 oz/1000 ft^2 biweekly, day 14
[3] = 0.5 oz/1000 ft^2 biweekly, day 17
[4] = 0.5 oz/1000 ft^2 biweekly, day 20
[5] = 0.5 oz/1000 ft^2 biweekly, day 22
[6] = 0.5 oz/1000 ft^2 biweekly, day 29
[7] = 0.5 oz/1000 ft^2 biweekly, day 34
[8] = 0.5 oz/1000 ft^2 biweekly, day 38
[9] = 0.5 oz/1000 ft^2 biweekly, day 41
[10] = 0.5 oz/1000 ft^2 biweekly, day 43
[11] = 0.5 oz/1000 ft^2 biweekly, day 57
[12] = 0.5 oz/1000 ft^2 biweekly, day 71
[13] = 0.5 oz/1000 ft^2 biweekly, day 76
[14] = 0.5 oz/1000 ft^2 biweekly, day 78
[15] = 0.5 oz/1000 ft^2 biweekly, day 84
[16] = 0.5 oz/1000 ft^2 biweekly, day 98
[17] = 0.5 oz/1000 ft^2 monthly, day 0
[18] = 0.5 oz/1000 ft^2 monthly, day 14
[19] = 0.5 oz/1000 ft^2 monthly, day 17
[20] = 0.5 oz/1000 ft^2 monthly, day 20
[21] = 0.5 oz/1000 ft^2 monthly, day 22
[22] = 0.5 oz/1000 ft^2 monthly, day 29
[23] = 0.5 oz/1000 ft^2 monthly, day 34
[24] = 0.5 oz/1000 ft^2 monthly, day 38
[25] = 0.5 oz/1000 ft^2 monthly, day 41
[26] = 0.5 oz/1000 ft^2 monthly, day 43
[27] = 0.5 oz/1000 ft^2 monthly, day 57
[28] = 0.5 oz/1000 ft^2 monthly, day 71
[29] = 0.5 oz/1000 ft^2 monthly, day 76
[30] = 0.5 oz/1000 ft^2 monthly, day 78
[31] = 0.5 oz/1000 ft^2 monthly, day 84
[32] = 0.5 oz/1000 ft^2 monthly, day 98

For `C[N+](C)(C)CCO.[Cl-]` [Choline, choline chloride], the “Leaf color (1-9, 9 = dark green)” value [1] was 7.0a, the “Turf quality (1-9, 9 = best)” value [1] was 6.9a and the “Leaf color (1-9, 9 = dark green)” value [2] was 7.0a. The “Turf quality (1-9, 9 = best)” value [2] was 7.1a, the “Leaf color (1-9, 9 = dark green)” value [3] was 7.0a and the “Turf quality (1-9, 9 = best)” value [3] was 7.0a. For the same compound, the “Leaf color (1-9, 9 = dark green)” value [4] was 7.0a, the “Turf quality (1-9, 9 = best)” value [4] was 7.0a and the “Leaf color (1-9, 9 = dark green)” value [5] was 6.9a. For the same compound, the “Turf quality (1-9, 9 = best)” value [5] was 7.0a, the “Leaf color (1-9, 9 = dark green)” value [6] was 7.0a and the “Turf quality (1-9, 9 = best)” value [6] was 7.0a. For the same compound, the “Leaf color (1-9, 9 = dark green)” value [7] was 7.4a, the “Turf quality (1-9, 9 = best)” value [7] was 6.9a and the “Leaf color (1-9, 9 = dark green)” value [8] was 7.5a. The “Turf quality (1-9, 9 = best)” value [8] was 7.1a, the “Leaf color (1-9, 9 = dark green)” value [9] was 7.4a and the “Turf quality (1-9, 9 = best)” value [9] was 7.0a. For the same compound, the “Leaf color (1-9, 9 = dark green)” value [10] was 7.1a, the “Turf quality (1-9, 9 = best)” value [10] was 6.5a and the “Leaf color (1-9, 9 = dark green)” value [11] was 6.5a. The “Turf quality (1-9, 9 = best)” value [11] was 5.9a, the “Leaf color (1-9, 9 = dark green)” value [12] was 6.4a and the “Turf quality (1-9, 9 = best)” value [12] was 6.1a. For the same compound, the “Leaf color (1-9, 9 = dark green)” value [13] was 6.5a, the “Turf quality (1-9, 9 = best)” value [13] was 6.0a and the “Leaf color (1-9, 9 = dark green)” value [14] was 6.4a. For the same compound, the “Turf quality (1-9, 9 = best)” value [14] was 5.6a, the “Leaf color (1-9, 9 = dark green)” value [15] was 6.8a and the “Turf quality (1-9, 9 = best)” value [15] was 5.8a. The “Leaf color (1-9, 9 = dark green)” value [16] was 7.0a, the “Turf quality (1-9, 9 = best)” value [16] was 6.1a and the “Leaf color (1-9, 9 = dark green)” value [17] was 7.0a. For the same compound, the “Turf quality (1-9, 9 = best)” value [17] was 7.0a, the “Leaf color (1-9, 9 = dark green)” value [18] was 6.9a and the “Turf quality (1-9, 9 = best)” value [18] was 6.9a. For the same compound, the “Leaf color (1-9, 9 = dark green)” value [19] was 7.0a, the “Turf quality (1-9, 9 = best)” value [19] was 7.0a and the “Leaf color (1-9, 9 = dark green)” value [20] was 7.0a. For the same compound, the “Turf quality (1-9, 9 = best)” value [20] was 7.3a, the “Leaf color (1-9, 9 = dark green)” value [21] was 6.9a and the “Turf quality (1-9, 9 = best)” value [21] was 6.6a. The “Leaf color (1-9, 9 = dark green)” value [22] was 7.0a, the “Turf quality (1-9, 9 = best)” value [22] was 6.6a and the “Leaf color (1-9, 9 = dark green)” value [23] was 7.5a. The “Turf quality (1-9, 9 = best)” value [23] was 7.3a, the “Leaf color (1-9, 9 = dark green)” value [24] was 7.1a and the “Turf quality (1-9, 9 = best)” value [24] was 7.0a. For the same compound, the “Leaf color (1-9, 9 = dark green)” value [25] was 7.5a, the “Turf quality (1-9, 9 = best)” value [25] was 7.0a and the “Leaf color (1-9, 9 = dark green)” value [26] was 6.9a. For the same compound, the “Turf quality (1-9, 9 = best)” value [26] was 6.6a, the “Leaf color (1-9, 9 = dark green)” value [27] was 7.1a and the “Turf quality (1-9, 9 = best)” value [27] was 6.8a. The “Leaf color (1-9, 9 = dark green)” value [28] was 6.9a, the “Turf quality (1-9, 9 = best)” value [28] was 6.8a and the “Leaf color (1-9, 9 = dark green)” value [29] was 7.0a. The “Turf quality (1-9, 9 = best)” value [29] was 6.6a, the “Leaf color (1-9, 9 = dark green)” value [30] was 7.0a and the “Turf quality (1-9, 9 = best)” value [30] was 6.5a. The “Leaf color (1-9, 9 = dark green)” value [31] was 7.3a, the “Turf quality (1-9, 9 = best)” value [31] was 7.0a and the “Leaf color (1-9, 9 = dark green)” value [32] was 7.7a. For the same compound, the “Turf quality (1-9, 9 = best)” value [32] was 7.3a.
